Experimental data from patent US4732970A, “Antitumor amino acid and peptide derivatives of 1,4-bis(aminoalkyl and hydroxy-aminoalkyl)amino)-5,8-dihydroxyanthraquinones” (priority 1986, dated 1988).
Where two headings read alike, the source gives them in different places.

Test system: lymphocytic leukemia P388
Assay: Lymphocytic Leukemia P388 Test
Type: in vivo, BDF1 mice
Details: for Median Survival: BDF1 mice; for response vs control in vivo at 0.75 mg/kg / response vs control in vivo at 1.5 mg/kg / response vs control in vivo at 3 mg/kg: Mus musculus, P388, ip
Protocol: The animals used were BDF1 mice, all of one sex, weighing a minimum of 18 g and all within a 3 g weight range. There were 5 or 6 mice per test group. The tumor transplant was by intraperitoneal injection of 0.5 ml of dilute ascitic fluid containing 10^6 cells of lymphocytic leukemia P388. The test compounds were administered intraperitoneally on days 1, 5 and 9 (relative to tumor inocu-lation) at various doses. The animals were weighed and survivors recorded on a regular basis for 60 days. The median survival time and the ratio of survival time for treated (T)/control (C) animals were calculated.

[1] = dose 0.75 mg/kg intraperitoneally on days 1, 5 and 9
[2] = dose 0.75 mg/kg intraperitoneally on days 1, 5 and 9, ratio of survival time treated/control
[3] = dose 1.5 mg/kg intraperitoneally on days 1, 5 and 9
[4] = dose 1.5 mg/kg intraperitoneally on days 1, 5 and 9, ratio of survival time treated/control
[5] = dose 3 mg/kg intraperitoneally on days 1, 5 and 9
[6] = dose 3 mg/kg intraperitoneally on days 1, 5 and 9, ratio of survival time treated/control

| SMILES | Median Survival [1] | T/C × 100 (%) [2] | Median Survival [3] | T/C × 100 (%) [4] | Median Survival [5] | T/C × 100 (%) [6] | response vs control in vivo at 0.75 mg/kg (read-out: T/C × 100 (%)) | response vs control in vivo at 1.5 mg/kg (read-out: T/C × 100 (%)) | response vs control in vivo at 3 mg/kg (read-out: T/C × 100 (%)) | response vs control in vivo at 0.75 mg/kg (dose 0.75 mg/kg intraperitoneally on days 1, 5 and 9, ratio of survival time treated/control, read-out: T/C × 100 (%)) | response vs control in vivo at 1.5 mg/kg (dose 1.5 mg/kg intraperitoneally on days 1, 5 and 9, ratio of survival time treated/control, read-out: T/C × 100 (%)) | response vs control in vivo at 3 mg/kg (dose 3 mg/kg intraperitoneally on days 1, 5 and 9, ratio of survival time treated/control, read-out: T/C × 100 (%)) | response vs control in vivo at 0.75 mg/kg (read-out: T/C × 100 (%), dose 0.75 mg/kg intraperitoneally on days 1, 5 and 9, ratio of survival time treated/control) | response vs control in vivo at 1.5 mg/kg (read-out: T/C × 100 (%), dose 1.5 mg/kg intraperitoneally on days 1, 5 and 9, ratio of survival time treated/control) | response vs control in vivo at 3 mg/kg (read-out: T/C × 100 (%), dose 3 mg/kg intraperitoneally on days 1, 5 and 9, ratio of survival time treated/control) |
| --- | --- | --- | --- | --- | --- | --- | --- | --- | --- | --- | --- | --- | --- | --- | --- |
| O=C(O)C(F)(F)F.O=C(O)C(F)(F)F.O=C(O)CC[C@H](NC(=O)OCc1ccccc1)C(=O)NCCNc1ccc(NCCNC(=O)[C@H](CCC(=O)O)NC(=O)OCc2ccccc2)c2c1C(=O)c1c(O)ccc(O)c1C2=O (relative stereo) [Example 48, [S-(R*,R*)]-5,5'-[(9,10-Dihydro-5,8-dihydroxy-9,10-dioxo-1,4-anthracenediyl)bis(imino-2,1-ethanediylimino)]bis[5-oxo-4-[[(phenylmethoxy)carbonyl]amino]pentanoic acid, bis(trifluoroacetate)] | 14.0 days | 117% | 15.0 days | 125% | 16.5 days | 138% |  |  |  |  |  |  |  |  |  |
| Br.Br.NCC(=O)N[C@@H](Cc1ccccc1)C(=O)NCCNc1ccc(NCCNC(=O)[C@H](Cc2ccccc2)NC(=O)CN)c2c1C(=O)c1c(O)ccc(O)c1C2=O (relative stereo) [Example 54, [S-(R*,R*)]-N,N'-[(9,10-Dihydro-5,8-dihydroxy-9,10-dioxo-1,4-anthracenediyl)bis(imino-2,1-ethanediyl)]bis[glycyl-L-phenylalaninamide]dihydrobromide] | 18.5 days | 185% | 19.0 days | 195% | 19.0 days | 190% |  |  |  |  |  |  |  |  |  |
| C[C@H](N)C(=O)NCCNc1ccc(NCCNC(=O)[C@H](C)N)c2c1C(=O)c1c(O)ccc(O)c1C2=O.Cl.Cl (stereo in doubt) [Example 16, [S-(R*,R*)]-N,N'-[(9,10-Dihydro-5,8-dihydroxy-9,10-dioxo-1,4-anthracenediyl)bis(imino-2,1-ethanediyl)]bis-[2-aminopropanamide], dihydrochloride] | 25.5 days | 232% | 52.5 days | 477% | 42.5 days | 386% |  |  |  |  |  |  |  |  |  |
| CC(C)C[C@H](N)C(=O)NCCNc1ccc(NCCNC(=O)[C@@H](N)CC(C)C)c2c1C(=O)c1c(O)ccc(O)c1C2=O.Cl.Cl (stereo in doubt) [Example 18, [S-(R*,R*)]-N,N'-[(9,10-Dihydro-5,8-dihydroxy-9,10-dioxo-1,4-anthracenediyl)bis(imino-2,1-ethanediyl)]bis-[-amino-4-methylpentanamide], dihydrochloride] | 25.5 days | 213% | 26.0 days | 217% | 18.0 days | 150% |  |  |  |  |  |  |  |  |  |
| CC(C)C[C@@H](N)C(=O)NCCNc1ccc(NCCNC(=O)[C@H](N)CC(C)C)c2c1C(=O)c1c(O)ccc(O)c1C2=O.Cl.Cl (stereo in doubt) [Example 20, [(R*,R*)]-N,N'-[(9,10-Dihydro-5,8-dihydroxy-9,10-dioxo-1,4-anthracenediyl)bis(imino-2,1-ethanediyl)]bis-[2-amino-4-methylentanamide], dihydrochloride] | 20.5 days | 171% | 22.5 days | 188% | 23.5 days | 196% |  |  |  |  |  |  |  |  |  |
| C[C@@H](N)C(=O)NCCNc1ccc(NCCNC(=O)[C@@H](C)N)c2c1C(=O)c1c(O)ccc(O)c1C2=O.Cl.Cl (stereo in doubt) [Example 25, [R-(R*,R*)]-N,N'-[(9,10-Dihydro-5,8-dihydroxy-9,10-dioxo-1,4-anthracenediyl)bis(imino-2,1-ethanediyl)]bis-[2-aminopropanamide], dihydrochloride] | 19.0 days | 173% | 20.0 days | 182% | 24.0 days | 218% |  |  |  |  |  |  |  |  |  |
| Br.Br.CC(C)C[C@H](N)C(=O)NCCNc1ccc(NCCNC(=O)[C@@H](N)CC(C)C)c2c1C(=O)c1c(O)ccc(O)c1C2=O (stereo in doubt) [Example 31, [S-(R*,R*)]-N,N'-[(9,10-Dihydro-5,8-dihydroxy-9,10-dioxo-1,4-anthracenediyl)bis(imino-2,1-ethanediyl)]bis[2-amino-4-methylpentanamide], dihydrobromide] | 17.5 days | 175% | 18.0 days | 180% | 21.0 days | 210% |  |  |  |  |  |  |  |  |  |
| C[C@H](NC(=O)OC(C)(C)C)C(=O)N[C@@H](C)C(=O)N(CCNc1ccc(NCCN(C(=O)[C@H](C)NC(=O)[C@H](C)NC(=O)OC(C)(C)C)[C@@H](C)C(=O)O)c2c1C(=O)c1c(O)ccc(O)c1C2=O)[C@@H](C)C(=O)O [Example 7., N,N'-[(9,10-Dihydro-5,8-dihydroxy-9,10-dioxo-1,4-anthracenediyl)bis(imino-2,1-ethanediyl)]bis[N-[(1,1-dimethylethoxy)carbonyl]-L-alanyl-L-alanyl-L-alanine]] | 18.5 days |  | 18.0 days |  | 19.0 days |  | 176% | 171% | 181% |  |  |  |  |  |  |
| CC(C)CC(N)C(=O)N(CCO)CCNc1ccc(NCCN(CCO)C(=O)C(N)CC(C)C)c2c1C(=O)c1c(O)ccc(O)c1C2=O.Cl.Cl (stereo not drawn) [Example 28, N,N'-[(9,10-Dihydro-5,8-dihydroxy-9,10-dioxo-1,4-anthracenediyl)bis(imino-2,1-ethanediyl)]bis[2-amino-N-(2-hydroxyethyl)-4-methylpentanamide], dihydrochloride] | 12.0 days |  | 14.0 days |  | 17.0 days |  |  |  |  | 109% | 127% | 155% |  |  |  |
| Br.Br.CC(C)C[C@H](N)C(=O)N[C@@H](C)C(=O)NCCNc1ccc(NCCNC(=O)[C@H](C)NC(=O)[C@@H](N)CC(C)C)c2c1C(=O)c1c(O)ccc(O)c1C2=O [Example 50, N,N'-[(9,10-Dihydro-5,8-dihydroxy-9,10-dioxo-1,4-anthracenediyl)bis(imino-2,1-ethanediyl)]bis[L-leucyl-L-alaninamide], dihydrobromide] | 17.0 days |  | 20.0 days |  | 20.0 days |  |  |  |  |  |  |  | 170% | 200% | 200% |
| CC(C)C[C@H](NC(=O)OCc1ccccc1)C(=O)N[C@@H](C)C(=O)N[C@@H](CC(C)C)C(=O)NCCNc1ccc(NCCNC(=O)[C@H](CC(C)C)NC(=O)[C@H](C)NC(=O)[C@H](CC(C)C)NC(=O)OCc2ccccc2)c2c1C(=O)c1c(O)ccc(O)c1C2=O [Example 51] | 20.0 days | 182% | 19.0 days | 173% | 17.0 days | 155% |  |  |  |  |  |  |  |  |  |
| Br.Br.CC(C)C[C@H](NC(=O)[C@H](C)NC(=O)[C@@H](N)CC(C)C)C(=O)NCCNc1ccc(NCCNC(=O)[C@H](CC(C)C)NC(=O)[C@H](C)NC(=O)[C@@H](N)CC(C)C)c2c1C(=O)c1c(O)ccc(O)c1C2=O [Example 52, N,N'-[(9,10-Dihydro-5,8-dihydroxy-9,10-dioxo-1,4-anthracenediyl)bis(imino-2,1-ethanediyl)]bis[L-leucyl-L-Alanyl-L-leucinamide]dihydrobromide] | 20.5 days | 205% | 25.5 days | 255% | 25.0 days | 250% |  |  |  |  |  |  |  |  |  |
| O=C(CNC(=O)OCc1ccccc1)N[C@@H](Cc1ccccc1)C(=O)NCCNc1ccc(NCCNC(=O)[C@H](Cc2ccccc2)NC(=O)CNC(=O)OCc2ccccc2)c2c1C(=O)c1c(O)ccc(O)c1C2=O [Example 53] | 18.5 days | 168% | 17.5 days | 159% | 19.0 days | 173% |  |  |  |  |  |  |  |  |  |
| C[C@H](NC(=O)OCc1ccccc1)C(=O)NCC(=O)NCCNc1ccc(NCCNC(=O)CNC(=O)[C@H](C)NC(=O)OCc2ccccc2)c2c1C(=O)c1c(O)ccc(O)c1C2=O [Example 55] | 12.5 days | 114% | 13.0 days | 118% | 19.0 days | 173% |  |  |  |  |  |  |  |  |  |
